Measured values published in patent publication US8466164B2.

Columns and labels:
[1] = tested on: Src-Y416 phosphorylation in SaOS-2; test: immunoblotting of phospho-Src-Y416 in SaOS-2; format: cell-based, human; conditions: SaOS-2, compounds at their IC50, 3 h
Procedure: Compounds were used at their corresponding IC50. Cells were treated for 3 h prior to their lysis. A) Specific c-Src phosphorylation was evaluated when whole-cell lysates were immunoprobed with anti-nonphospho-Src-Y416 and anti-phospho-Src-Y416 antibodies. B) Graph reports the optical density values relative to immunoreactive bands of phospho-Src-Y416. […] C) Graphical representation of SI-83 (magenta) into the ATP binding pocket of Src. The solvent accessible surface of residues is depicted (blue), while several amino acids, responsible for the major hydrophobic contacts with the binding site, are also shown (cyan).
For Phospho-SrcY416 detection, cells were lysed in ice-cold 0.1% SDS containing a cocktail of protease inhibitors and 1 mM sodium orthovanadate (Sigma-Aldrich). […] All antibodies employed were from Cell Signaling Technology ([…], USA). Proteins were probed with primary antibodies o.n. at 4° C., followed by secondary antibodies for 1 h at room temperature. Detection was obtained by ImmunoStar HRP™ (BioRad). Band areas were detected using ImageScanner™ (Amersham Bioscience, Little Chalfont, GB) and bands' optical densities were analysed by Image Master software (Amersham Bioscience). Band optical densities of Phospho-SrcY416 were normalized against those of total Src as an internal control.

SaOS-2 cells [2] = test: MTT cell viability assay on SaOS-2; conditions: for CV (%) after 24 h (cellular viability with respect to control): 24 h treatment; for CV (%) after 24 h (cellular viability with respect to control) / CV (%) after 48 h (cellular viability with respect to control): control = 100%, mean ± SD; for CV (%) after 48 h (cellular viability with respect to control): 48 h treatment, 25 μM; for IC50: read-out: IC50 on SaOS-2 cell viability, MTT, 1-100 μM, 48 h
normal human osteoblasts = test: nodule formation and mineralization (alizarin red S); conditions: IC5, IC20, IC50 (SaOS-2); for tolerance of treatment by osteoblasts: three weeks
SaOS-2 cells [3] = test: flow cytometric cell cycle/apoptosis analysis on SaOS-2; conditions: 48 h, 3 μM to 100 μM
SaOS-2 cells [4] = test: TUNEL assay on SaOS-2; format: cell-based, human; conditions: 48 h treatment, 12.5 μM
[5] = tested on: primary human osteoblasts; test: MTT cell viability assay on primary human osteoblasts; conditions: 48 h; for reduction of osteoblast growth (inhibitory activity): 25 μM
[6] = tested on: primary human osteoblasts; test: flow cytometric apoptosis analysis on primary osteoblasts; conditions: for reduction of pro-apoptotic effect on osteoblasts respecting to SaOS-2: at IC50 (determined on SaOS-2), 48 h
[7] = tested on: Ba/F3 cells expressing mutated Bcr-Abl / IM-resistant cell lines; test: Annexin V/PI apoptotic assay on Ba/F3 cells; format: cell-based; conditions: 5 μM
Procedure: Apoptotic assay was performed on 1×10^6 cells and apoptotic cells were recognized by cytofluorimetric analysis of fluorescinated Annexin V (Roche) and PI uptake.

[8] = tested on: phosphorylation of Bcr-Abl (Tyr245), Src (Tyr416) and Lyn (Tyr507); test: western blot of kinase phosphorylation in Ba/F3 cells; format: cell-based; conditions: 5 μM, up to 24th h of exposure, Imatinib-sensitive and resistant contexts
Procedure: The inhibitory effects of S29 toward the phosphorylation of Bcr-Abl (Tyr245), Src (Tyr416) and Lyn (Tyr507) were assessed using western blot analysis. Whole cell lysates were obtained from 1×10^7 cells (either untreated or following 24 h and 48 h exposure to 5 μM S29) in lysis buffer.
Protein lysates from whole cells were incubated overnight with the primary antibodies (anti-Abl phosphorylated at Tyr245, Cell Signaling; anti-Src phosphorylated at Tyr416, Cell Signaling; anti-Lyn phosphorylated at Tyr507, Cell Signaling; anti-Lyn, Biosource; anti-Beta-actin, Santa Cruz Biotechnology) and then 1 h at rt with the secondary antibodies (Amersham). Beta actin was used for protein loading control. Signal intensities from 3 repeated blots were quantified by a GS-700 Imagining densitometer (BioRad) equipped with a dedicated software (Molecular Analyst).

recombinant human Src = recombinant human Src (Homo sapiens, UniProt P12931); test: cell-free Src enzymatic assay; format: biochemical; conditions: calculated from ID50; triplicate, mean values; read-out: Ki toward recombinant human Src
recombinant human Src, sequence (P12931 whole entry): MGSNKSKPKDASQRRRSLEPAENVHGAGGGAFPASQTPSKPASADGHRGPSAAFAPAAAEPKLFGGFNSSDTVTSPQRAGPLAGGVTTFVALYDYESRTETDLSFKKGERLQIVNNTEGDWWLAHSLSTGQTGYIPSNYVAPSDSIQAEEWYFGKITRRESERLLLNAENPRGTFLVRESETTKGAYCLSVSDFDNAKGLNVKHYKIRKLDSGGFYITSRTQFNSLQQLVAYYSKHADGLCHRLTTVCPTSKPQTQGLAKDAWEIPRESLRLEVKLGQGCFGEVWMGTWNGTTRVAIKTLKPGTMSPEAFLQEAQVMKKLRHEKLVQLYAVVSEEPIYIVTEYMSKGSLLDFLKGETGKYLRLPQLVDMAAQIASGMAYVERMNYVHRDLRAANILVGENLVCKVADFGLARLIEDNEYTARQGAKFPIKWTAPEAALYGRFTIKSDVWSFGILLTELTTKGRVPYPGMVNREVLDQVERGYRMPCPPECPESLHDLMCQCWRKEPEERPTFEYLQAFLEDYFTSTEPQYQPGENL

SaOS-2 xenograft = SaOS-2 xenograft in nude mice; format: in vivo, CD 1 nude mice
Procedure: In order to evaluate the effect of SI-83 in a preclinical experimental model of osteosarcoma the authors injected s.c. SaOS-2 cells together with Matrigel in nude mice. […] The authors divided mice in three groups containing each 4 mice: mice receiving vehicle (control); mice receiving 50 mg/kg SI-83; mice receiving 100 mg/kg SI-83. The administration of SI-83 determined at endpoint a reduction in xenograft growth respect to control measured as weight reduction (FIG. 6B1). At the dose of 100 mg/kg, SI-83 determined a significant reduction (P<0.01) in tumour weight of about 40% respect to control tumours. Also the administration of 50 mg/kg SI-83 determined a smaller (about 15%) but significant reduction (p<0.05) in tumour volume respect to control (FIG. 6B1). Xenograft tissues were processed for histologic evaluation of phospho-Src expression (FIG. 6B3). Tumour cells in the control group expressed detectable levels of phospho-Src.
CD 1 nude mice (Charles River, Milan, Italy) were maintained under the guidelines established by the authors' Institution (University of L'Aquila, Medical School and Science and Technology School Board Regulations, complying with the Italian government regulation n.116 Jan. 27, 1992 for the use of laboratory animals). Before tumour cells implantation, mice were anesthesized with a mixture of ketamine (25 mg/mL)/xylazine (5 mg/mL). Xenografts were obtained by injecting s.c. 1×10^6 SaOS-2 cells in 100 μL of 12 mg/ml Matrigel (Becton Dickinson). Mice received daily the drug by per os administration at the doses indicated. Tumour growth was monitored daily and at the endpoint, after 26 days, the tumors were excided, weighted and processed for histology. Briefly tumors were fixed in 4% formaldehyde in 0.1 M phosphate buffer, pH 7.2 and embedded in paraffin. Slide-mounted tissue sections (4 μm thick) were deparaffinized in xylene and hydrated serially in 100, 95, and 80% ethanol. Endogenous peroxidases were quenched in 3% H2O2 in PBS for 1 h and then slides were incubated with anti human Src [pY416] phosphospecific antibody (Biosource, Camarillo, Calif., USA) for 1 h at room temperature.

TE-85 = test: MTT cell viability assay on TE-85; format: cell-based, human; conditions: 48 h
MG63 = test: MTT cell viability assay on MG63; format: cell-based, human; conditions: 48 h
MNNG cells = test: MTT cell viability assay on MNNG; format: cell-based, human; conditions: 48 h
U-20S = test: MTT cell viability assay on U-20S; format: cell-based, human; conditions: 48 h
[9] = tested on: human primary osteoblasts; test: Hoechst staining of primary osteoblasts; conditions: 25 μM
mouse osteoclasts = test: osteoclast bone resorption assay; format: cell-based
Text: It is very important to note that there is a significant difference in bone resorption for the control (DMSO) in the two experiments reported in FIG. 4. […] The method used to measure bone resorption is based on the growth in vitro of osteoclasts that then resorb bone. However, this cell-based assay is usually characterized by a significant variability, mainly due to the fact that the basic amount of bone resorption can vary among replicates. Although such a limitation, this assay is widely recognized as the gold standard to assess the ability of compounds to inhibit bone resorption by osteoclasts.^53

in vitro = conditions: male, human, primary human osteoblasts

## CC(C)(C)n1nc(-c2ccc(Cl)cc2)c2c(N)ncnc21 [PP2, reference compound]
[1]
  inhibition of phosphorylation of Src at Y416: 50%
SaOS-2 cells [2]; SaOS-2, MTT
  concentration at which 83% inhibition of cell viability is obtained: higher than 50 μM
  CV (%) after 24 h (cellular viability with respect to control): 36.8 ± 1.7%
  CV (%) after 48 h (cellular viability with respect to control): 36.4 ± 1.6%
SaOS-2 cells [2]
  IC50: 8.07 µM
Normal human osteoblasts
  tolerance of treatment by osteoblasts: did not tolerate drug treatment
Normal human osteoblasts; twice a week, 1-3 weeks
  percentage of Ca2+ inside calcification nodules: always lower than control
SaOS-2 cells [3]
  cell cycle progression: stop cell cycle progression in G0 and G1 phases in a dose-dependent manner
SaOS-2 cells [4]
  pro-apoptotic effect (TUNEL): induced apoptosis
[5]
  reduction of osteoblast growth (inhibitory activity): 50%
[6]
  reduction of pro-apoptotic effect on osteoblasts respecting to SaOS-2: 15%

## Fc1ccc(CNc2ncnc3c2cnn3CC(Cl)c2ccc(Cl)cc2)cc1 (centres unmarked) [S-29]
[7]; IM-resistant cell lines additioned with IL-3, after 24 h of exposure
  apoptosis induction: apoptosis occurred
[7]; mutated cell lines, after 48 h treatment
  apoptosis induction: induced apoptotic death
[8]
  Bcr-Abl and Lyn-Src kinase phosphorylation: Complementary abrogation
Recombinant human Src
  Ki: 0.5 µM

## CSc1nc(Nc2cccc(Cl)c2)c2cnn(CC(Cl)c3ccccc3)c2n1 (centres unmarked) [SI-83]
SaOS-2 xenograft; 50 mg/kg daily per os, endpoint day 26, p<0.05
  reduction in tumour volume respect to control: about 15%
SaOS-2 xenograft; 100 mg/kg daily per os, endpoint day 26, P<0.01
  reduction in tumour weight respect to control: about 40%
SaOS-2 xenograft; daily administration
  signs of distress or loss of weight in mice: did not determine any appreciable sign of distress or loss of weight
SaOS-2 xenograft; treated groups, immunohistology Src [pY416]
  phospho-Src staining of tumour tissues: faint or null staining
[1]
  inhibition of phosphorylation of Src at Y416: 55%
SaOS-2 cells [2]; SaOS-2, MTT
  CV (%) after 24 h (cellular viability with respect to control): 17.1 ± 1.3%
  CV (%) after 48 h (cellular viability with respect to control): 15.1 ± 0.7%
SaOS-2 cells [2]
  IC50: 12.6 µM
Normal human osteoblasts
  tolerance of treatment by osteoblasts: better tolerated
TE-85
  response of cell viability: less susceptible
MG63
  response of cell viability: less susceptible
SaOS-2 cells [4]
  pro-apoptotic effect (TUNEL): strongest pro-apoptotic effect
[5]; 12.5 μM
  osteoblast viability: not affected at all
[5]
  reduction of osteoblast growth (inhibitory activity): 20%
MNNG cells
  response of cell viability compared with SaOS-2: even more responsive than SaOS-2
[6]
  reduction of pro-apoptotic effect on osteoblasts respecting to SaOS-2: 79%
[6]; at respective IC50, time course 24, 48, 96 h
  apoptosis induced in osteoblasts respecting to PP2: half of apoptosis
U-20S
  response of cell viability: less susceptible
Recombinant human Src
  Ki: 0.6 µM
[9]
  cell morphology / DNA damage (Hoechst): did not alter cell morphology or cause DNA damage
Mouse osteoclasts; 10 and 1 μM
  bone resorption: abrogate bone resorption
Mouse osteoclasts; reduced test dose (up to 1 nM)
  percent inhibition of bone resorption: lower but significant
In vitro
  viability at 48 h, 25 µM: ~80%
